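Each compound was tested at five concentrations against cells in 96-well plates for 48 hours. At the GI50, growth is halved. TGI: total growth inhibition.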
Assays:
Assay in all cases: NCI-60 cell line screen, 48 h
U251 CNS = system: U251 CNS
HL-60(TB) leukemia = system: HL-60(TB) leukemia
SW-620 colon = system: SW-620 colon
HCT-15 colon = system: HCT-15 colon
SN12C renal = system: SN12C renal
SF-268 CNS = system: SF-268 CNS
RPMI-8226 leukemia = system: RPMI-8226 leukemia
NCI-H522 lung = system: NCI-H522 lung
A498 renal = system: A498 renal
EKVX NSCLC = system: EKVX NSCLC

Structure (SMILES)	TGI (U251 CNS)	TGI (HL-60(TB) leukemia)	TGI (SW-620 colon)	TGI (HCT-15 colon)	TGI (SN12C renal)	TGI (SF-268 CNS)	TGI (RPMI-8226 leukemia)	TGI (NCI-H522 lung)	TGI (A498 renal)	TGI (EKVX NSCLC)	GI50 (SW-620 colon)	GI50 (HCT-15 colon)	GI50 (NCI-H522 lung)	GI50 (A498 renal)	GI50 (EKVX NSCLC)	GI50 (U251 CNS)	GI50 (HL-60(TB) leukemia)	GI50 (SN12C renal)	GI50 (SF-268 CNS)	GI50 (RPMI-8226 leukemia)
CC(OC(C)(C)C)[C@H](NC(=O)OCC(Cl)(Cl)Cl)C(=O)O (stereo partly drawn)	> 100 µM	> 100 µM	> 100 µM	> 100 µM	> 100 µM	> 100 µM	> 100 µM	> 100 µM	> 100 µM	> 100 µM										
O=C(Cn1c[n+](CC(=O)c2ccc(-c3ccccc3)cc2)c2ccccc21)Nc1cccc2cccnc12			3.05 µM	30.9 µM				3.25 µM	4.84 µM	4.13 µM	1620 nM	9.63 µM	1530 nM	1040 nM	1.63 µM					
O=C(O)CCC(NC(=O)c1ccc(Nc2nc3cc(C(F)(F)F)ccc3nc2-c2ccccc2)cc1)C(=O)O (stereo not drawn)	> 100 µM	> 100 µM	> 100 µM	> 100 µM	> 100 µM	> 100 µM	> 100 µM	> 91.6 µM	> 100 µM	> 100 µM										
COc1ccc2cc(/C=N/NC(=O)Nc3ccccc3)ccc2c1	> 100 µM	> 100 µM	> 100 µM	> 100 µM	> 100 µM		> 100 µM		> 100 µM											
CC1(CCOCc2ccccc2)NC(=O)NC1=O (stereo not drawn)	> 100 µM		> 100 µM	> 100 µM	> 100 µM	> 100 µM		> 100 µM	> 100 µM	> 100 µM										
CC1(C)N=C(N)N=C(N)N1c1ccc(CCc2ccccc2)cc1	> 100 µM	49.1 µM	> 100 µM	> 100 µM	> 78.1 µM	> 65 µM	> 100 µM	33.9 µM	> 100 µM	91.5 µM										
NCc1ccccc1-c1c2nc(c(-c3ccccc3CN)c3ccc([nH]3)c(-c3ccccc3CN)c3nc(c(-c4ccccc4CN)c4ccc1[nH]4)C=C3)C=C2	51.6 µM	33.3 µM	> 100 µM	49.4 µM	39.8 µM	> 100 µM	32.3 µM			48.7 µM										
CCC(/C=C/C1OC(=O)C=CC1C)=C\C(C)C/C=C/C(C)=C/C(C)C(=O)C(C)C(O)C(C)C/C(C)=C/C(=O)O (stereo not drawn)	5.89 µM		6.29 µM		12 µM	7.64 µM				11.4 µM	0.00244 nM	1.72e-06 µM	0.00622 nM	0.00131 nM	1.29 µM	< 1 pM	< 1 pM	0.0696 nM	1.89 µM	3.11 pM
Cc1[nH]nc(C(F)(F)F)c1N=NN1CCOCC1	27.7 µM	6.18 µM	5.64 µM	25.8 µM	30.8 µM	26.8 µM	5.06 µM	8.7 µM	32.6 µM	21.3 µM										

Source: PubChem BioAssay (NCI)
